Drawing on BindingDB's records for doi:10.3109/14756366.2012.680062 (Shandong University, 2013), this text covers IC50 for 13 compounds.

One may read the IC50 as the concentration needed to halve the response being measured. Higher therefore signals lower potency.

In the assay the target is T1, Aminopeptidase N (Sus scrofa, UniProt P15145).
T1 sequence (P15145 whole entry): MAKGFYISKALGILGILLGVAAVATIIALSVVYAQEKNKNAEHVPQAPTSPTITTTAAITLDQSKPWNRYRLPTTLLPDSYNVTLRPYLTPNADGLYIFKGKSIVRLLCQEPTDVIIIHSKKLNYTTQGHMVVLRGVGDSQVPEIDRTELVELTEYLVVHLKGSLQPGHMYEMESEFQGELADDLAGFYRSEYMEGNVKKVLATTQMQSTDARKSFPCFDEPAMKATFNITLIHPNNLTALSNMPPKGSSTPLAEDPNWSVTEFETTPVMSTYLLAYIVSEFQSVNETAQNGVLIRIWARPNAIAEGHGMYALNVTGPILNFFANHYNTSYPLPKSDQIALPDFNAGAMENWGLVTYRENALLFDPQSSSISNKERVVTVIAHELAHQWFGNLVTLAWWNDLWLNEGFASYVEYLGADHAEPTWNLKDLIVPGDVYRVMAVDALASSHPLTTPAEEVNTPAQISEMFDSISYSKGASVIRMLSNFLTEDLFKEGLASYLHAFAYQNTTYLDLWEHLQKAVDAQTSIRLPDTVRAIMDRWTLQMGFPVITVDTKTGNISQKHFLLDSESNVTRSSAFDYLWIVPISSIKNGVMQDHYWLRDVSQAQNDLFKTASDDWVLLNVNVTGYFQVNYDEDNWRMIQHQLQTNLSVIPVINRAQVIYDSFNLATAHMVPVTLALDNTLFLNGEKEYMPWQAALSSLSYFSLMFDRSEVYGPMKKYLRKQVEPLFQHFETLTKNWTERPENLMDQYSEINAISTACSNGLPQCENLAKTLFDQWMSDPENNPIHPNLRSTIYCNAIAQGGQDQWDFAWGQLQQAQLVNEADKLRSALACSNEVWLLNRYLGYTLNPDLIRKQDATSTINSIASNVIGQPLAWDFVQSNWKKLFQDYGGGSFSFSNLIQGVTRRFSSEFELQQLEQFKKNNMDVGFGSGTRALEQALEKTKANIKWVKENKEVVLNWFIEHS
In words: In Vitro APN Inhibition Assay. To be noted: pH 7.2.
In turn, `CC(C)[C@H](NC(=O)[C@@H](NC(=O)[C@@H](O)CN)C(C)C)C(=O)O` [L-isoserine-L-valine-L-valine (16f)] showed an IC50 of 13.6 µM.
To `CC(C)C[C@H](NC(=O)[C@@H](O)CN)C(=O)N[C@H](C(=O)O)C(C)C` [L-isoserine-L-leucyl-L-valine (16i)] belongs 5.16 µM.
`CC(C)C[C@H](NC(=O)[C@@H](NC(=O)[C@@H](O)CN)c1ccccc1)C(=O)O` [L-isoserine-L-phenylglycine-L-leucyl (16k)] came in with an IC50 of 11.6 µM.
In the case of `CC(C)[C@H](NC(=O)[C@@H](O)CN)C(=O)N[C@@H](Cc1ccccc1)C(=O)O` [L-isoserine-L-valine-L-phenylalanine (16d)] it was 30.2 µM; in that of `CC(C)C[C@H](NC(=O)[C@H](Cc1ccc(O)cc1)NC(=O)[C@@H](O)CN)C(=O)O` [L-isoserine-L-tyrosinase-L-leucyl (16l)], 2.51 µM.
As for `NC[C@H](O)C(=O)N[C@@H](Cc1ccccc1)C(=O)N[C@@H](Cc1ccccc1)C(=O)O` [L-isoserine-L-phenylalanine-L-phenylalanine (16n)], half-maximal inhibition (IC50) was put at 6.5 µM.
With `CC(C)[C@H](NC(=O)[C@@H](NC(=O)[C@@H](O)CN)c1ccccc1)C(=O)O` [L-isoserine-L-phenylglycine-L-valine (16c)], the IC50 amounted to 51.5 µM.
Turning to `CC(C)C[C@H](NC(=O)[C@@H](O)CN)C(=O)N[C@@H](Cc1ccc(O)cc1)C(=O)O` [L-isoserine-L-eucyl-L-tyrosinase (16m)], 17.5 µM corresponded to half-maximal inhibition (IC50).
In the case of `NC[C@H](O)C(=O)N[C@H](C(=O)N[C@@H](Cc1ccccc1)C(=O)O)c1ccccc1` [L-isoserine-L-phenylglycine-L-phenylalanine (16g)] it was 5.8 µM; in that of `CC(C)[C@H](NC(=O)[C@H](Cc1ccc(O)cc1)NC(=O)[C@@H](O)CN)C(=O)O` [L-isoserine-L-tyrosinase-L-valine (16e)], 11.5 µM; in that of `CCC(C)[C@H](NC(=O)[C@H](Cc1ccccc1)NC(=O)[C@@H](O)CN)C(=O)O` (stereo partly drawn) [2-[2-(3-amino-2-hydroxypropanamido)-3-phenylpropanamido]-3-methylpentanoic acid (16a)], 30.4 µM.
As to `CC(C)C[C@H](NC(=O)[C@@H](NC(=O)[C@@H](O)CN)C(C)C)C(=O)O` [L-isoserine-L-valine-L-leucyl (16h)], the midpoint of inhibition, the IC50, lay at 6.5 µM.
In the case of `CC(C)[C@H](NC(=O)[C@H](Cc1ccccc1)NC(=O)[C@@H](O)CN)C(=O)O` [L-isoserine-L-phenylalanine-L-valine (16b)] it was 94 µM.
